Results as given in paper PMC10179080, “In Vivo and In Vitro Characterization of Close Analogs of Compound KA-11, a New Antiseizure Drug Candidate” (International Journal of Molecular Sciences, 2023).

Experiments:
[1] = test system: 6-Hz-induced psychomotor seizures in mice; experiment: 6 Hz (32 mA) seizure model; assay type: in vivo
Method: (§1) The experiments were conducted on adult male albino Swiss mice weighing 22–26 g. The animals were kept in colony cages under standardized laboratory conditions: natural light–dark cycle 12/12 h, temperature 20–24 °C, air humidity 45–65% and free access to tap water and food (chow pellets). After 7 days of adaptation to laboratory conditions, the animals were randomly assigned to experimental groups consisting of 8 mice. The experimental procedures described herein were approved by the Local Ethics Committee in Lublin, Poland (approval numbers: 71/2020 and 13/2021), and were conducted in accordance with EU Directive 2010/63/EU for animal experiments. All efforts were made to minimize animal suffering and to use only the number of animals necessary to produce reliable scientific data according to the 3Rs rule.
(§2) All substances (except PTZ and tetracaine hydrochloride dissolved in water for injections) were suspended in a 1% solution of Tween 80 (Sigma-Aldrich, Saint Louis, MO, USA) in water for injections (Baxter, Warszawa, Poland) or 0.9% NaCl. All drugs were injected intraperitoneally (i.p.) 30 min before all seizure models with 1 mL syringes as a single injection, in a volume of 10 mL/kg. The pretreatment time (30 min) before testing for KA-228 and KA-232 was chosen based on the time to peak of maximum anticonvulsant activity of KA-11 from our previous studies.
The 6-Hz-induced psychomotor seizures in mice were evoked by current (6 Hz, 0.2 ms rectangular pulse width, 32 mA, 3 s duration) generated by an S48 Square Pulse Stimulator and CCU1 Constant Current Unit (Grass Technologies, West Warwick, RI, USA). The animals were administered with increasing doses of KA-228 and KA-232, and the anticonvulsant activity of each drug was evaluated as the ED50. This experimental procedure has been described in detail in our previous studies.
(§3) The ED50 or TD50 values for tested substances in the acute animal models of seizures were calculated using the computer log-probit analysis. Subsequently, the ED50 and TD50 values (±SEM) were statistically analyzed using one-way analysis of variance (ANOVA) followed by the post hoc Dunnett’s test for multiple comparisons. Differences among values were considered statistically significant if p < 0.05. GraphPad Prism version 8 for Windows (GraphPad Software, San Diego, CA, USA) was used as a statistical software program. The results obtained from the acute ivPTZ test and grip strength test were evaluated by a Student’s t test. Fisher’s exact probability test was used to analyze protection from tonic forelimb and hindlimb extension in the ivPTZ test.

[2] = test system: tonic–clonic seizures in mice; experiment: Maximal electroshock seizure (MES) test; assay type: in vivo
Method: as §1, §2
The tonic–clonic seizures in mice were evoked by an electric stimulus (an alternating current 25 mA, 50 Hz, maximum output voltage 500 V, 0.2 s) generated by a rodent shocker (Hugo Sachs Elektronik, Freiburg, Germany) and delivered via ear-clip electrodes. […] This experimental procedure has been described in detail in our previous studies.
as §3

[3] = test system: PTZ-induced clonic seizures in mice; experiment: scPTZ-induced convulsions; assay type: in vivo; settings: i.p.
Method: as §1, §2
The PTZ-induced clonic seizures in mice were determined after sc administration of PTZ at a dose of 100 mg/kg. The animals were administered with increasing doses of KA-228 and KA-232, and the anticonvulsant activity of each drug was evaluated as the ED50 value. This experimental procedure has been described in detail in our previous studies.
as §3

Na^+ channel (site 2) = experiment: Radioligand binding, Na+ channel (site 2); set-up: species or system rat
Method: (§4) Dysfunction of both sodium and calcium ion channels is known to be one of the crucial reasons behind the pathogenesis of seizures. Consequently, these ion channels are molecular targets for several clinically important ASDs such as lacosamide, lamotrigine, carbamazepine, oxcarbazepine and compounds currently under preclinical and clinical studies. Thus, for KA-228 and KA-232, we tested herein their binding profile toward the aforementioned ion channels at concentrations of 10 and 100 µM (Table 3). […] Apart from in vitro studies focused on explaining the mechanism of action, KA-232 was additionally tested for its interaction with the potassium channel (hERG) which is recognized as one of the most important ‘off-targets’ responsible for harmful arrhythmogenic activity. Thus, the interaction of potential drug candidates with hERG must be excluded at an early stage of development.
(§5) Binding studies were carried out commercially in Eurofins Laboratories (Poitiers, France or New Taipei City, Taiwan).

[4] = test system: Calcium Cav1.2 channels (dihydropyridine site, antagonist radioligand); experiment: Radioligand binding, Cav1.2 dihydropyridine site; set-up: species or system rat; settings: 10 µM
Method: as §4, §5

Chimney test = settings: male, albino Swiss, mouse, in vivo, ip, mice
Method: as §1
The chimney test of Boissier et al. was used to quantify the acute adverse-effect potential of KA-228 and KA-232 on motor performance in mice. […]
The ED50 or TD50 values for tested substances in the acute animal models of seizures were calculated using the computer log-probit analysis. Subsequently, the ED50 and TD50 values (±SEM) were statistically analyzed using one-way analysis of variance (ANOVA) followed by the post hoc Dunnett’s test for multiple comparisons. […] The results obtained from the acute ivPTZ test and grip strength test were evaluated by a Student’s t test. […]

[5] = test system: neuromuscular strength in mice; experiment: Grip strength test; assay type: in vivo; settings: 50 mg/kg i.p., 30 min before test
Method: The experiments were conducted on adult male albino Swiss mice weighing 22–26 g. The animals were kept in colony cages under standardized laboratory conditions: natural light–dark cycle 12/12 h, temperature 20–24 °C, air humidity 45–65% and free access to tap water and food (chow pellets). After 7 days of adaptation to laboratory conditions, the animals were randomly assigned to experimental groups consisting of 8 mice. The experimental procedures described herein were approved by the Local Ethics Committee in Lublin, Poland (approval numbers: 71/2020 and 13/2021), and were conducted in accordance with EU Directive 2010/63/EU for animal experiments. All efforts were made to minimize animal suffering and to use only the number of animals necessary to produce reliable scientific data according to the 3Rs rule. The grip strength test was carried out according to the methodology described by Socała et al.. Neuromuscular strength was measured just before the ivPTZ seizure threshold test to limit the number of animals used. The ED50 or TD50 values for tested substances in the acute animal models of seizures were calculated using the computer log-probit analysis. Subsequently, the ED50 and TD50 values (±SEM) were statistically analyzed using one-way analysis of variance (ANOVA) followed by the post hoc Dunnett’s test for multiple comparisons. Differences among values were considered statistically significant if p < 0.05. GraphPad Prism version 8 for Windows (GraphPad Software, San Diego, CA, USA) was used as a statistical software program. The results obtained from the acute ivPTZ test and grip strength test were evaluated by a Student’s t test. Fisher’s exact probability test was used to analyze protection from tonic forelimb and hindlimb extension in the ivPTZ test. Figure 8 Effects of KA-228 and KA-232 on neuromuscular strength in mice. KA-228 and KA-232 were administered i.p., 30 min before the test. Control animals received vehicle. […] The statistical significance was evaluated using the Student’s t test: * p < 0.05 vs. the vehicle-treated group (GraphPad Prism 8).

[6] = test system: seizure susceptibility in mice; experiment: Timed ivPTZ seizure threshold test; assay type: in vivo; settings: 50 mg/kg i.p., 30 min before ivPTZ
Method: as §1
The timed ivPTZ seizure threshold test was carried out according to the method described by Socała et al.. KA-228 and KA-232 were suspended in a 1% solution of Tween 80 and administered i.p. 30 min before the test. In the experiment with KA-232, two separate control groups were used because the effects of KA-232 at a dose of 50 and 100 mg/kg were determined on different days.
as §3
Figure 7 Effects of KA-11, KA-228 and KA-232 on the threshold for the first myoclonic twitch (A), generalized clonus (B) and forelimb tonus (C) in the ivPTZ test in mice. KA-228 and KA-232 were administered i.p., 30 min before seizure induction. Control animals received vehicle. Data are presented as means ± SD (mg/kg PTZ; n = 9–14 animals; the n value varies between groups because some animals were excluded from the study due to unsuccessful catheterization of the vein). The statistical significance for KA-228 and KA-232 was evaluated by a Student’s t test. Data for KA-11 were used from Socała et al. and re-analyzed using one-way ANOVA followed by Dunnett’s post hoc test. * p < 0.05, ** p < 0.01, *** p < 0.001, **** p < 0.0001 vs. the vehicle-treated group (GraphPad Prism 8).

CC(C(=O)N1CCN(c2cccc(C(F)(F)F)c2)CC1)N1CCCC1=O (stereo not shown) [KA-228, 1-(1-oxo-1-(4-(3-(trifluoromethyl)phenyl)piperazin-1-yl)propan-2-yl)pyrrolidin-2-one]
ED50 ([1]; Mus musculus, ip, 30 min before test, read-out: ED50 6 Hz ± SD): 61.8 mg/kg
TI (TD50/ED50), 6 Hz ([1]; i.p.): 1.72
ED50 6 Hz ± SD ([1]; i.p., 30 min before test): 76.4 ± 40.76 mg/kg
ED50 ([2]; Mus musculus, ip, 30 min before test, read-out: ED50 MES ± SD): 92.5 ± 16 mg/kg
TI (TD50/ED50), MES ([2]; i.p.): 1.42
ED50 ([3]; Mus musculus, scPTZ 100 mg/kg, 30 min before test, read-out: ED50 PTZ ± SD): 95.4 ± 39.8 mg/kg
TI (TD50/ED50), PTZ ([3]; scPTZ): 1.38
% Inhibition of Control Specific Binding (Na^+ channel (site 2); 10 µM): −2.9%
% Inhibition of Control Specific Binding (Na^+ channel (site 2); 100 µM): 15.5%
% Inhibition of Control Specific Binding [4]: 8.7%
melting point: 87.1 to 88.4 °C
TD50 at 30 min (Chimney test): 131 ± 36.2 mg/kg
effect on neuromuscular strength (grip strength) [5]: did not produce any significant effects
effect on threshold for forelimb tonus [6]: significantly raised
effect on threshold for generalized clonus [6]: did not cause any significant changes
effect on threshold for the first myoclonic twitch [6]: did not cause any significant changes
